Experiments:
Assay in all cases: Quantitative drug diffusion (disc) assay per CLSI, zone of inhibition
Type in all cases: cell-based
Set-up in all cases: key to CLSI susceptibility interpretation: (R): Resistant;; (I): Intermediate;; (S): Sensitive (Interpretation as per CLSI recommendations, 2010)
E. coli 7MP = test system: E. coli 7MP
Description: (§1) Antibacterial activity of cefepime combination with tazobactam against various bacterial strains, including those bacteria that are known to product one or more beta-lactamase, was investigated in quantitative drug diffusion assay performed as per CLSI recommendations (Clinical and Laboratory Standards Institute (CLSI), performance Standards for Antimicrobial Susceptibility Testing, 20th Informational Supplement, M 100-S20, Volume 30, No. 1, 2010).
(§2) In a typical study, overnight grown bacterial cultures after appropriate dilution were seed inoculated in the molten, cooled agar media and plates poured. Antibacterial agents containing 6 mm diameter discs were placed on the top of the agar surface. Zone of inhibition based observation was performed after 16 to 18 hours of incubation at 35±2° C. in ambient air. These assays are routinely used in determining possibility of treating a particular infection using given antibacterial agent or a composition. In general, zone inhibition values in the sensitive(S) range indicate that the strain is susceptible to that antibacterial agent or composition. It is generally assumed that the antibacterial agent or the combination under consideration would not be effective in treating the infection, if the zone inhibition values are in the resistant (R) range.

E. coli B-123 = test system: E. coli B-123
Description: as §1, §2

E. coli B-89 = test system: E. coli B-89
Description: as §1, §2

E. coli M-138 = test system: E. coli M-138
Description: as §1, §2

E. coli M50 = test system: E. coli M50
Description: as §1, §2

E. coli S-112 = test system: E. coli S-112
Description: as §1, §2

[1] = 6 mm discs, 16 to 18 hours at 35±2° C., tazobactam 10 mcg in the combination
[2] = interpretation of zone of inhibition

CO/N=C(\C(=O)N[C@@H]1C(=O)N2C(C(=O)[O-])=C(C[N+]3(C)CCCC3)CS[C@H]12)c1csc(N)n1 [Cefepime, cefepime]
Zone of Inhibition (E. coli 7MP; [1]): 16 mm | CLSI susceptibility interpretation (E. coli 7MP; [2]): I | Zone of Inhibition (E. coli B-123; [1]): 8 mm | CLSI susceptibility interpretation (E. coli B-123; [2]): R | Zone of Inhibition (E. coli B-89; [1]): 8 mm | CLSI susceptibility interpretation (E. coli B-89; [2]): R | Zone of Inhibition (E. coli M-138; [1]): Nil | CLSI susceptibility interpretation (E. coli M-138; [2]): R | Zone of Inhibition (E. coli M50; [1]): 7.5 mm | CLSI susceptibility interpretation (E. coli M50; [2]): R | Zone of Inhibition (E. coli S-112; [1]): 17 mm | CLSI susceptibility interpretation (E. coli S-112; [2]): I
